From patent publication US8658647B2, “Integrin-linked kinase inhibitors” (The Ohio State University Research Foundation, priority 2010, dated 2014)
Each block holds one molecule with its values, some of them ahead of it.

Legend:
[1] = tested on: Akt phosphorylation at the PDK2 site [S473] versus the PDK1 site [T308]; assay: Western blot of Akt phosphorylation at PDK2 (S473) vs PDK1 (T308) sites in PC-3 cells; format: cell-based, human; conditions: 24 h, 2.5 μM, 5% FBS
Procedure: (§1) FIG. 2 provides (A) Western blot analysis of the effects of compounds 1-9 on Akt phosphorylation at the PDK1 (T308) and PDK2 (S473) sites in PC-3 human prostate cancer cells after 24 h treatment at 2.5 μM in the presence of 5% fetal bovine serum (FBS), and (B) Dose-dependent effects of compounds 1-9 on the viability of PC-3 cells treated as described above in A. Cell viability was assessed by MTT assay. Points, mean; bars, ±SD.

[2] = tested on: prostate (PC-3, LNCaP) and breast cancer (MDA-MB-468, MDA-MB-231, CAL51, MCF-7, SKBR3) cell lines vs nonmalignant prostate (PrEC) and mammary epithelial cells …; assay: MTT cell viability in panel of prostate and breast cancer cell lines vs nonmalignant epithelial cells; format: cell-based, human; conditions: 12, 24 or 48 h
Procedure: Time- and/or dose-dependent effects of compound 2 on cell viability in (A) prostate cancer (PC-3, LNCaP) and nonmalignant prostate epithelial cells (PrEC), and (B) breast cancer (MDA-MB-468, MDA-MB-231, CAL51, MCF-7, SKBR3) and nonmalignant mammary epithelial cells (MEC) were determined. Cells were treated for 12, 24 or 48 h at the indicated concentrations and cell viability determined by MTT assays. Points, mean; bars, ±SD.
As structurally related compounds 2 and 3 differ only in that the N-alkyl moiety, i.e., methyl versus ethyl, compound 2 was selected for more thorough evaluation. Dose- and time-dependent effects of compound 2 on cell viability were determined in a panel of two prostate (PC-3, LNCaP) and five breast cancer (MDA-MB-468, MDA-MB-231, CAL51, MCF-7, SKBR3) cell lines (FIGS. 3A and B). Moreover, cancer cell lines were also evaluated in parallel with nonmalignant prostate and mammary epithelial cells (FIG. 3A, lower panel; 3B lower right panel).

[3] = tested on: PC-3 human prostate cancer cells; assay: MTT cell viability assay in PC-3 cells; format: cell-based; conditions: 24 h, 5% FBS; for IC50: Homo sapiens, read-out: IC50, antiproliferative activity
Procedure: as §1
(§2) FIG. 5 provides the results from the screening of compounds 10-13. (A) Dose-dependent effects of compounds 10-13 and 2 on the viability of PC-3 cells after 24 h treatment […] in the presence of 5% FBS. Cell viability was assessed by MTT assay. Points, mean; bars, ±SD. (B) Western blot analysis of the effects of compounds 2 and 13 on the phosphorylation status of downstream targets of ILK in PC-3 cells.
(§3) In another series of tests, Compounds 10-13 were screened for antiproliferative activity, in parallel with compound 2, by MTT assay in PC-3 human prostate cancer cells. […] The effects of compound 13, vs. compound 2, on the phosphorylation status of downstream targets of ILK in PC-3 cells were evaluated by western blotting.

[4] = tested on: downstream targets of ILK (Akt-S473; GSK3β-S9); assay: Western blot of downstream targets of ILK, dose-dependent (FIG. 4); format: cell-based, human; conditions: PC-3 and MDA-MB-468 cells, 24 h, 5% FBS
Procedure: FIG. 4 provides evidence that Compound 2 suppresses the ILK signaling pathway. Western blot analysis of the dose-dependent effect of Compound 2 on downstream targets of ILK (Akt-S473; GSK3β-S9) in PC-3 and […] cells. Cells were treated for 24 h at the indicated concentrations in the presence of 5% FBS.
Based on western blot data showing the selective reduction in phospho-Akt-S473 levels relative to those of phospho-Akt-T308 (FIG. 2A), compound 2 was identified as an inhibitor of PDK2 activity. To evaluate compound 2 for the ability to inhibit ILK signaling, its effect on downstream targets of ILK was assessed in PC-3 and MDA-MB-468 cells by Western blotting (FIG. 4).

[5] = tested on: PC-3 tumor xenografts; assay: PC-3 prostate tumor xenograft model, oral dosing; format: in vivo; conditions: 35 days
Procedure: PC-3 tumors were established in male athymic nude mice by subcutaneous injection of 5×10^5 PC-3 cells in a total volume of 0.1 ml serum-free medium containing 50% Matrigel. Mice with established tumors were randomized to three groups receiving the indicated treatments once daily by gavage for 35 days. Tumor sizes and body weights were measured weekly. Points, mean tumor volume; bars, ±SD.
The In vivo tumor suppressive activity of compound 2 in the PC-3 prostate tumor xenograft model was also evaluated. Based on the results described above, compound 2 was identified as the lead agent for development as a novel ILK/PDK2 inhibitor. To evaluate the in vivo antitumor activity of compound 2, athymic nude mice bearing established subcutaneous PC-3 tumor xenografts (mean starting tumor volume, 157.1±29.1 mm^3) were treated orally for 35 days with compound 2 at 25 or 50 mg/kg once daily or with vehicle (0.5% methylcellulose and 0.1% Tween 80 in sterile water) (n=5 mice). […] The in vivo efficacy of compound 2 after oral administration indicates its oral bioavailability.

[6] = tested on: SKBR3 human breast cancer cells; assay: MTT cell viability assay in SKBR3 cells; format: cell-based; conditions: SK-BR-3, 24 h, 5% FBS, read-out: IC50, antiproliferative activity
Procedure: (§4) Dose-dependent effects of compounds 4-9 in MCF-7 (upper panel) and SKBR3 (lower) cells after 24 h treatment in the presence of 5% FBS. Cell viability was assessed by MTT assay. Points, mean; bars, ±SD.
(§5) Compounds 4-9, which were screened previously in a prostate cancer cell line (FIG. 2), were evaluated for antiproliferative activity in MCF-7 and SKBR3 human breast cancer cells.

[7] = tested on: MCF-7 human breast cancer cells; assay: MTT cell viability assay in MCF-7 cells; format: cell-based; conditions: MCF7, 24 h, 5% FBS, read-out: IC50, antiproliferative activity
Procedure: as §4, §5

[8] = tested on: downstream targets of ILK; assay: Western blot of phosphorylation status of downstream targets of ILK in PC-3 cells (FIG. 5B); format: cell-based, human
Procedure: as §2, §3

Structure (SMILES): CNC(=O)CCc1cc(-c2ccc(-c3ccc(C(F)(F)F)cc3)cc2)n(-c2ccc(N3CCNCC3)cc2)n1 [Compound 2, N-methyl-3-(1-(4-(piperazin-1-yl)phenyl)-5-(4′-(trifluoromethyl)-[1,1′-biphenyl]-4-yl)-1H-pyrazol-3-yl)propanamide]
selective inhibition of Akt-S473 phosphorylation (PDK2 inhibitory activity) [1]: marked selective inhibition of Akt-S473 phosphorylation
selectivity of cytotoxicity, cancer cells versus nonmalignant cells [2]: selective cytotoxicity for cancer cells versus their nonmalignant counterparts
antiproliferative activity, relative potency among compounds 1-9 [3]: most potent among the nine compounds
phospho-S473-Akt levels [4]: marked and selective decrease
phosphorylation of GSK3β [4]: reduced the phosphorylation
inhibition of PC-3 tumor growth relative to vehicle-treated controls ([5]; 25 mg/kg once daily oral, P=0.10): 42%
inhibition of PC-3 tumor growth relative to vehicle-treated controls ([5]; 50 mg/kg once daily oral, P=0.03): 56%
changes in body weight ([5]; 25 or 50 mg/kg once daily oral): nor significant changes in body weight
tolerability, signs of toxicity ([5]; 25 or 50 mg/kg once daily oral): no overt signs of toxicity

IC50 [6]: 4 to 5 µM
IC50 [7]: 4 to 5 µM
Structure (SMILES): CCNC(=O)c1cc(-c2ccc(-c3ccc(C(F)(F)F)cc3)cc2)n(-c2ccc(NC(=O)CCN)cc2)n1 [Compound 5, 1-(4-(3-aminopropanamido)phenyl)-N-ethyl-5-(4′-(trifluoromethyl)-[1,1′-biphenyl]-4-yl)-1H-pyrazole-3-carboxamide]

Structure (SMILES): CCNC(=O)CCc1cc(-c2ccc(-c3ccc(C(F)(F)F)cc3)cc2)n(-c2ccc(N3CCNCC3)cc2)n1 [Compound 3, N-ethyl-3-(1-(4-(piperazin-1-yl)phenyl)-5-(4′-(trifluoromethyl)-[1,1′-biphenyl]-4-yl)-1H-pyrazol-3-yl)propanamide]
selective inhibition of Akt-S473 phosphorylation (PDK2 inhibitory activity) [1]: marked selective inhibition of Akt-S473 phosphorylation
antiproliferative activity, relative potency among compounds 1-9 [3]: most potent among the nine compounds

Structure (SMILES): CNC(=O)CCc1cc(-c2ccc3c(ccc4ccccc43)c2)n(-c2ccc(N3CCNCC3)cc2)n1 [Compound 13, N-methyl-3-(5-(phenanthren-2-yl)-1-(4-(piperazin-1-yl)phenyl)-1H-pyrazol-3-yl)propanamide]
IC50 [3]: 2 to 3 µM
phospho-Akt-S473 relative to phospho-Akt-T308 [8]: strong reduction
suppressive activity against GSK3β phosphorylation [8]: did not exhibit substantial suppressive activity

IC50 [3]: 2 to 3 µM
Structure (SMILES): CNC(=O)CCc1cc(-c2ccc(-c3ccc(C)cc3)cc2)n(-c2ccc(N3CCNCC3)cc2)n1 [Compound 11, N-methyl-3-(5-(4′-methyl-[1,1′-biphenyl]-4-yl)-1-(4-(piperazin-1-yl)phenyl)-1H-pyrazol-3-yl)propanamide]
